“Also recorded” adds a separate entry of the source. Read-outs that look alike come from different tables or passages of the source.
What was measured:
[1] = system: dopamine transporter (DAT); details: human transporters expressed by HEK 293 cells; ref Simmler et al., 2013; cited from earlier work
Male Wistar rats [2] = experiment: stereotypy scores after non-contingent administration; format: in vivo, rat
Male Wistar rats [3] = experiment: fixed-ratio; format: in vivo, rat
Male Wistar rats [4] = experiment: intravenous self-administration acquisition; format: in vivo, rat; details: for infusion rate (M) / lever discrimination (M): 0.05 mg/kg/inf, FR5, 7 non-food-restricted sessions; for self-administered drug, Max / self-administered drug, Mean: 0.05 mg/kg/infusion i.v., within 10 training sessions; for level of drug intake from session to session: during acquisition
DAT/SERT = details: ref Simmler et al., 2013; cited from earlier work
Sprague-Dawley rats = details: s.c.; ref Baumann et al., 2013; cited from earlier work
Male Wistar rats [5] = experiment: locomotor activity by radiotelemetry after non-contingent s.c. administration; format: in vivo, rat; details: for maximal increase of activity over baseline and/or vehicle: lower doses
monoamine release = details: ref Baumann et al., 2013, Simmler et al.; cited from earlier work
[6] = system: serotonin transporter (SERT); details: human transporters expressed by HEK 293 cells; ref Simmler et al., 2013; cited from earlier work
Male Wistar rats [7] = experiment: progressive-ratio dose-response self-administration testing; format: in vivo, rat; details: for number of correct lever presses (M) / post-reinforcement pause duration (M) / time to reach breakpoint: PR; for number of correct lever presses (M) / post-reinforcement pause duration (M): 1st 3 hours of session
mice = details: i.p.; ref Marusich et al., 2012; cited from earlier work
[8] = system: dopamine transporter (DAT); details: rat synaptosomes; ref Baumann et al., 2013; cited from earlier work
[9] = system: noradrenaline transporter (NET); details: rat synaptosomes; ref Baumann et al., 2013; cited from earlier work
Male Wistar rats [10] = experiment: body temperature by radiotelemetry after non-contingent s.c. administration; format: in vivo, rat; details: for effect on body temperature: 0–5.6 mg/kg s.c., MDPV at TA about 23 °C
[11] = system: serotonin transporter (SERT); details: rat synaptosomes; ref Baumann et al., 2013; cited from earlier work
[12] = molecular target: noradrenergic transporter (Homo sapiens, UniProt P23975); experiment: biochemical
Chain of noradrenergic transporter (P23975 whole entry): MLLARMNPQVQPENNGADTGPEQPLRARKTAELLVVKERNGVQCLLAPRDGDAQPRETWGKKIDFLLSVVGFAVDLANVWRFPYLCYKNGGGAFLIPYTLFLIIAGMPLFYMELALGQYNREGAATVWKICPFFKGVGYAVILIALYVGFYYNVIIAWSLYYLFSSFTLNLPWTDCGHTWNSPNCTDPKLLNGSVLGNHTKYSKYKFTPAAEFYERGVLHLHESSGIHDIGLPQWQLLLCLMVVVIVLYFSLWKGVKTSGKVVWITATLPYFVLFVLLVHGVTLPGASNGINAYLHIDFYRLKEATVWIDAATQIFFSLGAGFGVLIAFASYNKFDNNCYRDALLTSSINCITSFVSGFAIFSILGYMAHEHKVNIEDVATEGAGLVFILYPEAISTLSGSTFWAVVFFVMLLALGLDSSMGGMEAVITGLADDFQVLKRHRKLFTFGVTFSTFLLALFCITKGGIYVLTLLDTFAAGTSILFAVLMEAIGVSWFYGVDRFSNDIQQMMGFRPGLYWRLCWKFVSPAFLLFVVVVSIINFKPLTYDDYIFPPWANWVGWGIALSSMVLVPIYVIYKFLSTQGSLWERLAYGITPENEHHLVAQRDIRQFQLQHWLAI

[13] = system: noradrenaline transporter (NET); details: human transporters expressed by HEK 293 cells; ref Simmler et al., 2013; cited from earlier work
Male Wistar rats [14] = experiment: stereotypy after self-administration sessions; format: in vivo, rat; details: FR5 dose-response testing
serotonin transporter = serotonin transporter (Homo sapiens, UniProt P31645); experiment: biochemical
Chain of serotonin transporter (P31645 whole entry): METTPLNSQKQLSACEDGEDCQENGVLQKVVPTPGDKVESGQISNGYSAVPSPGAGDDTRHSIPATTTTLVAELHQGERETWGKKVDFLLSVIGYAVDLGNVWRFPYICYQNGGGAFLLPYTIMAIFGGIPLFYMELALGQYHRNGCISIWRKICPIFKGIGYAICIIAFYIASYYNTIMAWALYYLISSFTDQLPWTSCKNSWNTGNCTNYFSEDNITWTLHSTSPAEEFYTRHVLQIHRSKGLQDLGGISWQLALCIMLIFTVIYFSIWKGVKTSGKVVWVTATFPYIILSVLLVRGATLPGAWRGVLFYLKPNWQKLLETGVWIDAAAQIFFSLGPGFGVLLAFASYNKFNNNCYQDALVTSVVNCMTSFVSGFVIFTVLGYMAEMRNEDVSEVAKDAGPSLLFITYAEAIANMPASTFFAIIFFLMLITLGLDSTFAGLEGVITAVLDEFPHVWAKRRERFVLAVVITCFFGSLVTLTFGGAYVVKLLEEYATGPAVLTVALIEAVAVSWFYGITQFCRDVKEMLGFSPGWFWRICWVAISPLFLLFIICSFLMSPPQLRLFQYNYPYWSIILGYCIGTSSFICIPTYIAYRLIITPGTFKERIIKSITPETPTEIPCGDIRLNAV

[15] = system: alpha adrenergic receptors; details: ref Roth et al., 2000, Rothman et al., 2001, 2003; cited from earlier work
[16] = FR5, per-infusion dose 0.01 mg/kg
[17] = FR5, per-infusion dose 0.05 mg/kg
[18] = FR5, per-infusion dose 0.10 mg/kg
[19] = FR5, per-infusion dose 0.50 mg/kg
[20] = 1.0 mg/kg s.c., MDPV 30- and 60-min bins, METH 30-, 90- and 120-min bins
[21] = 5.6 mg/kg s.c., summed deviations from mean of vehicle
[22] = 1.0 mg/kg s.c., MDPV 180-min bin, METH 30- to 120-min bins
[23] = FR5, per-infusion dose 0.25 mg/kg

Compound: CCCC(C(=O)c1ccc2c(c1)OCO2)N1CCCC1 (centres unmarked) [MDPV, 1-(1,3-benzodioxol-5-yl)-2-(1-pyrrolidinyl)-1-pentanone]
- IC50 [1]: 31 nM
- time for which stereotypy scores were higher than vehicle (Male Wistar rats [2]; 0.5 mg/kg s.c.): 15 min
- time for which stereotypy scores were higher than baseline (Male Wistar rats [2]; 0.5 mg/kg s.c., baseline immediately post-injection): 15 min
- time for which stereotypy scores were higher than vehicle (Male Wistar rats [2]; 1.0 mg/kg s.c.): 60 min
- time for which stereotypy scores were higher than baseline (Male Wistar rats [2]; 1.0 mg/kg s.c., baseline immediately post-injection): 60 min
- time for which stereotypy scores were higher than vehicle (Male Wistar rats [2]; 3.2 mg/kg s.c.): entire session
- time bins in which stereotypy scores were higher than baseline (Male Wistar rats [2]; 3.2 mg/kg s.c., baseline immediately post-injection): 15 to 135 min
- time for which stereotypy scores were higher than vehicle (Male Wistar rats [2]; 5.6 mg/kg s.c.): entire session
- infusion rate (M) (Male Wistar rats [3]; [16]): 35 infusions/hour
- post-reinforcement pause length (M) (Male Wistar rats [3]; [16]): 48 s
- infusion rate (M) (Male Wistar rats [3]; [17]): 13 infusions/hour
- post-reinforcement pause length (M) (Male Wistar rats [3]; [17]): 107 s
- infusion rate (M) (Male Wistar rats [3]; [18]): 8 infusions/hour
- post-reinforcement pause length (M) (Male Wistar rats [3]; [18]): 223 s
- infusion rate (M) (Male Wistar rats [3]; [19]): 4 infusions/hour
- post-reinforcement pause length (M) (Male Wistar rats [3]; [19]): 572 s
- potency on drug-reinforced behavior compared with METH (Male Wistar rats [3]; more responding under lowest dose under fixed-ratio schedule): greater potency
- infusion rate (M) (Male Wistar rats [4]): 19 inf/hr
- lever discrimination (M) (Male Wistar rats [4]): 86%
- self-administered drug, Max (Male Wistar rats [4]): 5.8 mg/kg/h
- self-administered drug, Mean (Male Wistar rats [4]): 0.9 mg/kg/h
- level of drug intake from session to session (Male Wistar rats [4]): ~ 1 mg/kg/hr
- reward-lever selectivity (Male Wistar rats [4]; for most rats): > 80%
- DAT/SERT inhibition ratio (DAT/SERT): > 100
- doses at which stereotypies were reported (Sprague-Dawley rats): above 0.3 mg/kg
- locomotor activity compared with vehicle (Male Wistar rats [5]; [20]): higher
- AUC for activity, MDPV vs METH (Male Wistar rats [5]; [21]): significantly higher for MDPV than METH
- resolution of high-dose suppression of locomotion (Male Wistar rats [5]): 120–150 minutes post-injection
- duration of significant low-dose locomotor stimulation (Male Wistar rats [5]): 90 minutes post-injection
- maximal increase of activity over baseline and/or vehicle (Male Wistar rats [5]): about 4 fold
- activity as monoamine releaser (monoamine release): ineffective as a monoamine releaser
- IC50 [6]: 9300 nM
- number of correct lever presses (M) (Male Wistar rats [7]; per-infusion dose 0.01 mg/kg): 53
- post-reinforcement pause duration (M) (Male Wistar rats [7]; per-infusion dose 0.01 mg/kg): 225 s
- number of correct lever presses (M) (Male Wistar rats [7]; per-infusion dose 0.05 mg/kg): 610
- post-reinforcement pause duration (M) (Male Wistar rats [7]; per-infusion dose 0.05 mg/kg): 110 s
- number of correct lever presses (M) (Male Wistar rats [7]; per-infusion dose 0.10 mg/kg): 933
- post-reinforcement pause duration (M) (Male Wistar rats [7]; per-infusion dose 0.10 mg/kg): 179 s
- number of correct lever presses (M) (Male Wistar rats [7]; per-infusion dose 0.50 mg/kg): 286
- post-reinforcement pause duration (M) (Male Wistar rats [7]; per-infusion dose 0.50 mg/kg): 820 s
- time to reach breakpoint (Male Wistar rats [7]; per-infusion dose 0.5 mg/kg, all except 2 sessions): ≤ 5 h
- time to reach breakpoint (Male Wistar rats [7]; per-infusion doses at or below 0.1 mg/kg, all rats): less than 3 hrs
- efficacy on drug-reinforced behavior compared with METH (Male Wistar rats [7]; more responding under optimal dose under a progressive-ratio schedule): greater efficacy
- doses after which stereotypies are exhibited (mice): 1 to 3 mg/kg
- IC50 [8]: 4.1 nM
- IC50 [9]: 26 nM
- effect on body temperature (Male Wistar rats [10]): modestly hyper-thermic; also recorded: negligible effect on temperature
- body temperature compared to pre-injection baseline (Male Wistar rats [10]; [22]): higher
- effect on rat body temperature at TA of 30°C (Male Wistar rats [10]; additional data, not shown): fails to significantly elevate rat body temperature
- body temperature after 1.0 mg/kg compared with 5.6 mg/kg (Male Wistar rats [10]; s.c., TA 23±1 °C, 180-min post-injection time bin): higher
- IC50 [11]: 3350 nM
- Ki [12]: 166 nM
- IC50 [13]: 44 nM
- average cumulative dose when post-session stereotypy was not observed (M) (Male Wistar rats [14]): 0.6 mg/kg per one hour session
- average cumulative dose when post-session stereotypy was observed (M) (Male Wistar rats [14]): 1.4 mg/kg per one hour session
- Ki (serotonin transporter): 1540 nM

Compound: CN[C@@H](C)Cc1ccccc1 [METH, d-methamphetamine, reference compound]
- infusion rate (M) (Male Wistar rats [3]; [16]): 8 infusions/hour
- post-reinforcement pause length (M) (Male Wistar rats [3]; [16]): 94 s
- infusion rate (M) (Male Wistar rats [3]; [17]): 6 infusions/hour
- post-reinforcement pause length (M) (Male Wistar rats [3]; [17]): 106 s
- infusion rate (M) (Male Wistar rats [3]; [18]): 5 infusions/hour
- post-reinforcement pause length (M) (Male Wistar rats [3]; [18]): 170 s
- infusion rate (M) (Male Wistar rats [3]; [23]): 4 infusions/hour
- post-reinforcement pause length (M) (Male Wistar rats [3]; [23]): 162 s
- infusion rate (M) (Male Wistar rats [4]): 8 inf/hr
- lever discrimination (M) (Male Wistar rats [4]): 83%
- self-administered drug, Max (Male Wistar rats [4]): 1.15 mg/kg/h
- self-administered drug, Mean (Male Wistar rats [4]): 0.4 mg/kg/h
- level of drug intake from session to session (Male Wistar rats [4]): ~ 0.5 mg/kg/hr
- DAT/SERT inhibition ratio (DAT/SERT): > 10
- locomotor activity compared with vehicle (Male Wistar rats [5]; [20]): higher
- locomotor activity compared with vehicle (Male Wistar rats [5]; 5.6 mg/kg s.c., 60–150-min post-injection time bins): lower
- resolution of high-dose suppression of locomotion (Male Wistar rats [5]): 150–180 minutes post-injection
- duration of significant low-dose locomotor stimulation (Male Wistar rats [5]): 120 minutes post-injection
- maximal increase of activity over baseline and/or vehicle (Male Wistar rats [5]): about 4 fold
- number of correct lever presses (M) (Male Wistar rats [7]; per-infusion dose 0.01 mg/kg): 60
- post-reinforcement pause duration (M) (Male Wistar rats [7]; per-infusion dose 0.01 mg/kg): 276 s
- number of correct lever presses (M) (Male Wistar rats [7]; per-infusion dose 0.05 mg/kg): 74
- post-reinforcement pause duration (M) (Male Wistar rats [7]; per-infusion dose 0.05 mg/kg): 103 s
- number of correct lever presses (M) (Male Wistar rats [7]; per-infusion dose 0.10 mg/kg): 250
- post-reinforcement pause duration (M) (Male Wistar rats [7]; per-infusion dose 0.10 mg/kg): 113 s
- number of correct lever presses (M) (Male Wistar rats [7]; per-infusion dose 0.25 mg/kg): 135
- post-reinforcement pause duration (M) (Male Wistar rats [7]; per-infusion dose 0.25 mg/kg): 490 s
- binding affinity [15]: low affinity binding
- effect on body temperature (Male Wistar rats [10]): increased monotonically
- body temperature compared to pre-injection baseline (Male Wistar rats [10]; [22]): higher
- body temperature compared to vehicle (Male Wistar rats [10]; 5.6 mg/kg s.c., 60- to 150-min time bins): higher
- body temperature compared to pre-injection baseline (Male Wistar rats [10]; 5.6 mg/kg s.c., 60- to 90-min post-injection time bins): higher
- AUC for body temperature, METH vs MDPV (Male Wistar rats [10]; [21]): higher for METH than for MDPV
- average body temperature as a function of dose (Male Wistar rats [10]; 20±2 °C TA): did not vary as a function of drug condition
- average body temperature as a function of dose (Male Wistar rats [10]; TA of 25±2 °C, doses in mg/kg s.c.): 5.6 > 1.0 > vehicle

Compound: COC(=O)[C@H]1[C@@H](OC(=O)c2ccccc2)C[C@@H]2CC[C@H]1N2C [cocaine]
- DAT/SERT inhibition ratio (DAT/SERT): 3.1

Reference: publication PMC3681807 (Neuropharmacology, 2013)
